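Tested at 5 concentrations; 48 h exposure; 96-well plates; endpoints linearly interpolated, else capped at highest concentration. TGI is the concentration that stops growth completely.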
What was measured:
Assay in all cases: NCI-60 cell line screen, 48 h
[1] = test system: HL-60(TB) leukemia
[2] = test system: M14 melanoma
[3] = test system: OVCAR-5 ovarian
[4] = test system: LXFL 529 NSCLC
[5] = test system: U251 CNS
[6] = test system: KM20L2 colon
[7] = test system: OVCAR-4 ovarian
[8] = test system: SK-MEL-2 melanoma
[9] = test system: UO-31 renal
[10] = test system: CCRF-CEM leukemia
[11] = test system: HT29 colon
[12] = test system: SF-539 CNS
[13] = test system: NCI-H522 lung
[14] = test system: SF-268 CNS
[15] = test system: EKVX NSCLC
[16] = test system: HCT-15 colon
[17] = test system: OVCAR-8 ovarian
[18] = test system: SW-620 colon
[19] = test system: RXF 393 renal
[20] = test system: TK-10 renal
[21] = test system: DLD-1 colon
[22] = test system: SN12C renal
[23] = test system: DMS 114 small cell lung
[24] = test system: SK-MEL-28 melanoma
[25] = test system: OVCAR-3 ovarian
[26] = test system: COLO 205 colon
[27] = test system: UACC-62 melanoma
[28] = test system: CAKI-1 renal
[29] = test system: HCC-2998 colon
[30] = test system: KM12 colon
[31] = test system: HOP-62 NSCLC
[32] = test system: A498 renal
[33] = test system: HOP-92 NSCLC
[34] = test system: M19-MEL melanoma
[35] = test system: SF-295 CNS
[36] = test system: MOLT-4 leukemia
[37] = test system: SNB-75 CNS
[38] = test system: UACC-257 melanoma
[39] = test system: A549 NSCLC
[40] = test system: MALME-3M melanoma
[41] = test system: IGROV1 ovarian
[42] = test system: HCT-116 colon
[43] = test system: XF 498 CNS
[44] = test system: NCI-H460 lung
[45] = test system: SK-OV-3 ovarian
[46] = test system: DMS 273 small cell lung
[47] = test system: ACHN renal
[48] = test system: NCI-H23 lung
[49] = test system: SNB-19 CNS
[50] = test system: K-562 leukemia
[51] = test system: SK-MEL-5 melanoma
[52] = test system: RPMI-8226 leukemia
[53] = test system: NCI-H226 lung
[54] = test system: LOX IMVI melanoma
[55] = test system: 786-0 renal
[56] = test system: SNB-78 CNS
[57] = test system: SR leukemia

Measured: TGI

CCNc1cnc2c(n1)c(=O)n(C)c(=O)n2C
not listed: [53] | [54] | [55] | [56] | [57]
> 100 µM: all other assays above

CC(C)NC(C)C(C)c1ccccc1 (stereo not given)
not listed: [1] | [3] | [16] | [33] | [56] | [57]
> 100 µM: all other assays above

O=S(O)CCCCCSSSCCCCCS(=O)O
36.3 µM: [43]
78.9 µM: [25]
65 µM: [1]
60.8 µM: [36]
41.8 µM: [19]
67.8 µM: [8]
27.9 µM: [4]
68.1 µM: [42]
94 µM: [40]
55.3 µM: [27]
30.3 µM: [57]
85.1 µM: [13]
37.7 µM: [10]
93.8 µM: [20]
94.8 µM: [37]
62.4 µM: [54]
not listed: [16] | [17] | [18] | [23] | [26] | [28] | [33] | [35] | [39] | [41] | [46] | [51] | [52] | [53] | [55]
> 100 µM: all other assays above

From PubChem BioAssay (NCI)
